{"source": "patent US9371330B2", "about": "“Substituted pyrazino[1,2-a]pyrimidines useful as CBP/catenin antagonists for enhancing asymmetric division of somatic stem cells” (University of Southern California, priority 2011, dated 2016)", "key": {"[1]": {"system": "mitotic cells in the ventricular zone (VZ)", "assay": "symmetric versus asymmetric divisions (Par3 distribution) in the ventricular zone of mouse embryos", "format": "in vivo", "description": "Taking advantage of the ready uptake and penetration through the placental barrier of applicant's small molecule Wnt modulators, applicant designed a series of experiments to investigate symmetric versus asymmetric divisions in the ventricular zone (VZ) of the brain during mouse embryonic development. Timed pregnant mice were topically treated for various time periods (1-3 days) with DMSO (vehicle control), the CBP/catenin antagonist ICG-001 or the p300/catenin antagonist IQ-1. Using a previously described protocol (56), the localization of […] (Par3) and DNA was examined in mitotic cells in the VZ. Par3 distributes symmetrically in cells that divide symmetrically and asymmetrically in cells that divide asymmetrically, whereas the DNA distributes symmetrically between the 2 cells. Using fluorescence microscopy, the percentage of mitotic cells dividing symmetrically or asymmetrically could be quantified. […] Antagonizing the CBP/catenin interaction with ICG-001 had no apparent effect yielding similarly, approximately 21% asymmetric divisions. […] Importantly, this decrease in asymmetric divisions upon treatment with IQ-1 could be rescued back essentially to control levels (i.e. ˜21%) by treatment with a 2-fold excess of ICG-001. Even further divergence in symmetric versus asymmetric divisions could be seen upon prolonged treatments. For example, treatment with IQ-1 (i.e., antagonizing p300/catenin interaction leading to increased usage of CBP) for 3 days (E13.5-16.5) decreased asymmetric divisions compared to control from 31% to 7%. […] This reporter mouse expresses EGFP, driven by the Tis21 promoter, in cells that have undergone neurogenic differentiative divisions.\nFor example, Bultje et al (Bultje R Neuron 63, 189-202, 2009) describe an assay to measure asymmetric distributions in the ventricular zone (vz) to evaluate asymmetric divisions during neurogenesis. Essentially this involves treating the animal (either adult or in utero) for a set period of time with compounds (either p.o., s.c., i.v. or topically) with compounds and then sacrificing the animal and examining the Par3 distribution (e.g., via immunohistochemistry) in mitotic cells vs. DNA distribution (e.g., using DAPI staining) Par3 distributes equally among the two daughter cells during symmetric division and unequally (essentially all in one daughter cell) during asymmetric differentiation."}, "[2]": {"system": "PR72/130 subunit of the serine/threonine phosphatase PP2A", "assay": "binding to PP2A subunit", "description": "(§1) IQ-1. In addition to ICG-001, a screen of a large chemical library for maintenance of pluripotency in mES cells led to the identification of another compound, termed IQ-1 (FIG. 2b). […] I-Q-1 diminishes the interaction between p300 and beta-catenin thereby increasing the CBP/beta-catenin interaction (24)."}, "[3]": {"system": "murine embryonic stem cells (mESCs)", "assay": "long-term culture of murine embryonic stem cells", "format": "cell-based, mouse", "conditions": "Wnt-dependent", "description": "as §1"}, "elastin": {"system": "elastin", "assay": "ex vivo human skin assay, qRT-PCR of elastin", "format": "cell-based", "conditions": "24 hrs; 5 uM ICG-001, 5 uM methylated ICG-001, 1 ug/ml RA", "method": "(§2) Methods. Ex Vivo human skin assay culture conditions were based upon a paper by Varani J et al Experimental and Molecular Pathology, 2004.\n(§3) Briefly, human skin (surgical waste from plastic surgery procedures) was obtained and the subcutaneous layer of fat was trimmed manually with a scalpel. The skin was then cut into small fragments about 2 mm square and placed in 6 well plates. 1 ml of keratinocyte culture medium (Gibco 10724-011) with 1% P/S (penstrep antibiotic) was added to each well. The epidermis, bathed in media was placed facing up. On the next day (overnight culture in the media above), the skin fragments were transferred to fresh wells that contained either 5 uM ICG-001, 5-uM methylated ICG-001 or 1 ug/ml of retinoic acid (RA). After 24 hrs, skin samples in culture were removed for RNA isolation and qRT-PCR analysis of genes of interest (e.g. elastin (a gene involved in skin appearance and pliability (e.g., wrinkling) and aquaporin 1, which is involved with hydration."}, "aquaporin 1": {"system": "aquaporin 1", "assay": "ex vivo human skin assay, qRT-PCR of aquaporin 1", "format": "cell-based", "conditions": "24 hrs; 5 uM ICG-001, 5 uM methylated ICG-001, 1 ug/ml RA", "method": "as §2, §3"}, "skin injury": {"system": "skin injury", "assay": "skin injury repair in normal and hair-less mice", "format": "in vivo, mouse", "conditions": "500 μM in vaseline, once a day for eight days", "method": "The ability of CBP/catenin (e.g., CBP/β-catenin) antagonist to accelerate injured skin repair in normal mice models (having full hair growth and normal fur) and hair-less mice models was tested. In brief, on day 0, the animals were subjected to skin injury in two spots on the back, hind end of each animal. Each skin injury spot was treated with 500 μM of either Vaseline (petrolatum) (vehicle) or Laura-8 in vaseline once a day for eight days."}, "hair-less mouse model": {"system": "hair-less mouse model", "assay": "hair growth in hair-less mouse model", "format": "in vivo", "conditions": "vs petroleum jelly", "method": "The ability of CBP/β-catenin antagonist to stimulate hair growth in a hair-less mouse model was tested. In brief, the animals were treated with either petroleum jelly or Laura-8 for 16 days. In addition, skin samples from each animal were taken and examined for hair-follicle formulation."}, "normal stem cell niche": {"system": "normal stem cell niche", "assay": "aging mice, long term topical administration", "format": "in vivo, mouse", "conditions": "12 months (6 to 18 months of age)", "description": "Left mouse is control, whereas right mouse received CBP/catenin (e.g., CBP/β-catenin) antagonists (topical Laura-8 as disclosed herein) for 12 months (from 6 months of age to 18 months of age)."}}, "note": "Entries after “also recorded” stand apart in the source; their conditions may differ.", "data": [{"smiles": "CC(=O)c1ccc(N=NC(C(N)=O)=C2NC(C)(C)Cc3ccccc32)cc1", "note": "[IQ-1]", "values": [{"measurement": "asymmetric divisions in the VZ", "setting": "[1]; 3 days (E13.5-16.5)", "value": 7, "unit": "%"}, {"measurement": "effect on number of asymmetric divisions", "setting": "[1]; topical or oral administration to pregnant mice", "value": "decreases the number of asymmetric divisions"}, {"measurement": "asymmetric divisions in the VZ", "setting": "[1]; topical to timed pregnant mice, 1 day (E13.5 to 14.5)", "value": "approximately 9%"}, {"measurement": "binding to PR72/130", "setting": "[2]", "value": "binds to the PR72/130 subunit of the serine/threonine phosphatase PP2A"}, {"measurement": "maintenance of pluripotency", "setting": "[3]", "value": "maintains the pluripotency"}]}, {"smiles": "C[C@H]1C2N(C(=O)NCc3ccccc3)CCC(=O)N2[C@@H](Cc2ccc(O)cc2)C(=O)N1Cc1cccc2ccccc12", "note": "(stereo partly drawn) [Me-ICG-001, (6S,9S)—N-benzyl-6-(4-hydroxybenzyl)-9-methyl-8-(naphthalen-1-ylmethyl)-4,7-dioxooctahydro-1H-pyrazino[1,2-a]pyrimidine-1-carboxamide]", "values": [{"measurement": "expression of elastin", "setting": "elastin", "value": "larger increase"}, {"measurement": "expression of aquaporin 1", "setting": "aquaporin 1", "value": "larger increase"}]}, {"smiles": "CCCCCCCCCCCC(=O)Oc1ccc(C[C@H]2C(=O)N(Cc3cccc4ccccc34)C[C@@H]3N(C(=O)NCc4ccccc4)CCC(=O)N32)cc1", "note": "[Laura-8]", "values": [{"measurement": "skin healing", "setting": "skin injury", "value": "significantly accelerated skin healing process"}, {"measurement": "hair growth", "setting": "hair-less mouse model; 16 days", "value": "significant hair growth"}, {"measurement": "new hair-follicle formation (skin pathology)", "setting": "hair-less mouse model", "value": "new hair-follicles were formed; also recorded: substantial new hair-follicle formation"}, {"measurement": "depletion of the normal stem cell niche", "setting": "normal stem cell niche", "value": "does not deplete the normal stem cell niche"}]}]}
